Entries after “also recorded” stand apart in the source; their conditions may differ.
What was measured:
A. viscosus [1] = experiment: Short Interval Kill Test (SIKT); format: cell-based; conditions: 0.3, 0.6 and 1 wt % in the prototype mouth rinse
Text: SIKT determines the kill effect of a test article at a predetermined exposure time. […] The reaction was neutralized after 30 seconds by adding a neutralizing broth. The reaction mixture was further diluted and plated on MCA (Microbial Count Agar) plates for viable bacterial count.

[2] = tested on: 3-day old biofilm of the artificial mouth consortium of bacteria (A. naeslundii, S. oralis, V. parvula, L. casei, F. nucleatum) and S. mutans; experiment: In vitro biofilm removal, 3-day old biofilm (protocol of Example 2); format: cell-based; conditions: 3-day old biofilm
Method: The 3-day old biofilm was grown on a 24 well plate using the artificial mouth consortium of bacteria (A. naeslundii, S. oralis, V. parvula, L. casei, F. nucleatum) and S. mutans. To generate the biofilm, plates were inoculated with saliva overnight to form a pellicle. The consortium of bacteria (1 mL) at an OD of ˜0.2 was added to each well. The bacterial media (Tryptic Soy Broth with 6% sucrose) was changed after 48 hours. The 3-day old biofilm was treated with the prototype formulation (500 μL) for 15 minutes on a plate shaker at 300 rpm. After incubation, the supernatant was discarded. The optical density of each well was measured and the percentage reduction in optical density relative to the control (water) was calculated to determine the effect of the prototype formulation on biofilm removal. […]
Water, untreated biofilm, commercially available mouthwash formulations with CPC (Cetyl pyridinium chloride) and a mouthwash containing five enzymes for combatting biofilm acted as […] for the experiment.

A. viscosus [3] = experiment: Growth inhibition of A. viscosus (optical density over time); format: cell-based
Method: The effects of 1-decyl-3-methylimidazolium (DMIM) chloride on bacterial growth were investigated in vitro. DMIM chloride was incorporated into a prototype mouth rinse as illustrated in Table 17. […] The growth inhibition was measured as a change in optical density over time.
The antibacterial effects of various ionic liquids were determined according to the protocol described in Example 12.

dental plaque = experiment: Dissolution of plaque; conditions: water-insoluble plaque vortex mixed with ionic liquid at room temperature, centrifuged at 13,000 g
Method: Dental plaque samples were obtained from subjects and treated with water to remove any water soluble actives. The samples were centrifuged at 13,000 g and the supernatant was collected and discarded. The remaining plaque that was insoluble in water was used to evaluate the plaque solubilizing potential of the ionic liquids.
Ionic liquids were added to the plaque sample, and the plaque sample was vortex mixed at room temperature. To ensure that the plaque was not simply suspended in the ionic liquid, the plaque containing vial with the ionic liquid was subsequently centrifuged at 13,000 g.
Plaque may form a suspension when mixed with water and that, on centrifugation, it is visible as an insoluble pellet.

Row | SMILES | time to kill A. viscosus (A. viscosus [1]) | biofilm removal, comparison in words ([2]; listed as DMIM chloride) | Percent Biofilm Removed ([2]; other ionic liquids) | growth inhibition of A. viscosus, in words (A. viscosus [3]; formulated at 0.312 wt %) | growth inhibition of A. viscosus, in words (A. viscosus [3]; formulated at 1 wt % in prototype mouth rinse of Table 17) | plaque dissolution (size of plaque pellet, visual) (dental plaque) | Percent Biofilm Removed ([2]; EMIM-based ionic liquids, […] in base prototype mouth rinse of Table 1) | optical density of A. viscosus culture, 0 h (A. viscosus [3]; 10% concentration in a mouth rinse, 0 h) | optical density of A. viscosus culture, 4 h (A. viscosus [3]; 10% concentration in a mouth rinse, 4 h) | optical density of A. viscosus culture, 22 h (A. viscosus [3]; 10% concentration in a mouth rinse, 22 h) | optical density of A. viscosus culture, 24 h (A. viscosus [3]; 10% concentration in a mouth rinse, 24 h)
1 | CCCCCCCCCCn1cc[n+](C)c1.[Cl-] [DMIM Cl, 1-decyl-3-methylimidazolium chloride] | ≤ 30 s | significantly more effective in removing biofilm than EMIM chloride and BMIM chloride; also recorded: most effective in removing biofilm | 57.3% | growth inhibition of A. viscosus is maintained | greater growth inhibition of A. viscosus than a 0.075 wt % CPC mouthwash | – | – | – | – | – | –
2 | CCn1cc[n+](C)c1.[Br-] [EMIM Br, 1-ethyl-3-methylimidazolium bromide] | – | – | – | – | – | size of the plaque pellet is reduced | 48.6% | 0.1482 | 0.2216 | 0.7598 | 0.8533

From patent US20150335548A1, “Oral Care Composition” (COLGATE-PALMOLIVE COMPANY, priority 2012, published 2015)
